Source: patent publication US7744854B2, “Method for optimizing cancer therapy by monitoring maturation of tumor associated vasculature by selenium” (Health Research, Inc., priority 2006, dated 2010)
Entries after “also recorded” stand apart in the source; their conditions may differ.

Legend:
FaDu xenografts [1] = test: Intratumoral microvessel density (CD31 immunostaining) in FaDu xenografts; type: in vivo; details: 0.2 mg/mouse/day, after 2 weeks, p<0.05
From the text: Microvessels were counted based on endothelial cells immunostaining with CD31 Mab on paraffin sections, after zinc fixative (p<0.05 in each system).

HIF-1α = HIF-1α expression in hypoxic FaDu tumor cells in vitro; type: cell-based; details: 24 hr hypoxic conditions, preliminary results
From the text: To determine whether HIF-1α is a target for MSC, FaDu tumor cells were exposed in vitro for 24 hr to hypoxic conditions and analyzed for HIF-1α expression to FaDu cells. […] The data in FIG. 8C is graphic representation of the relative intensity of each marker.

CD36 = test: Western blot of FaDu xenografts: CD36; type: in vivo; details: selenium for 14 days
From the text: (§1) MSC up-regulates Thrombospondin-1 (TSP-1) a potent inhibitor of angiogenesis and important controller of tumor growth and its receptor CD36 (FIG. 8A), HIF-1α expression (FIG. 8B) and relative intensity (FIG. 8C). To assess the effects of selenium on TVM, the expression of molecular markers associated with tumor hypoxia, drug resistance and increased proliferation, namely, hypoxia-inducible factor 1∝ (HIF-1∝), Cyclooxygenase-2 (Cox-2), inducible nitric oxide, propyl hydroxyl domain (PHD) and vascular endothelial growth factor (VEGF) were evaluated in xenograft tumors. Selenium was administered for 14 days. Western blot analysis was performed to determine the effect of MSC treatment on different antiangiogenic markers TSP-1, CD36, Delta-like 4 ligand (DLL4) and hypoxia inducible factor HIF-1α Data in FIG. 8A indicate that CD36 is up regulated in FaDu xenografts treated with MSC. Along with the CD36 MSC up regulates TSP-1, which is known to be involved in the inhibition of angiogenesis. Further, MSC down-regulates DLL4 in FaDu xenografts.

[2] = test system: HNSCC xenografts FaDu and A253; test: Tumor vascular maturation index and mean vessel lumen area; type: in vivo; details: vs untreated control tumors
From the text: FIG. 5A summarizes effect of MSC treatment on tumor vascular maturation index (VMI) and on the mean tumor vessel lumen area (FIG. 5B) in HNSCC xenografts FaDu and A253. […] Treatment with MSC makes the arrangement less chaotic and more ‘normalized’ in arrangement.

[3] = test system: Delta-like 4 ligand (DLL4); test: Western blot of FaDu xenografts: DLL4; type: in vivo; details: selenium for 14 days
From the text: as §1

[4] = Tumor drug uptake by HPLC in FaDu xenografts; type: in vivo
Experimental: FIGS. 6A and 6B show the effect of 14 days pre-treatment with MSC prior to drug administration on tumor drug uptake (2 hours post i.v.) as determined by HPLC in FaDu xenografts for CPT-11 and doxorubicin respectively. […] The drug concentration in the normal tissues studied such as liver, plasma.

FaDu tumors = test: CD31/α-SMA double immunohistochemical staining of FaDu tumors; type: in vivo, mouse; details: day 14 of MSC treatment
From the text: MSC treatment results in reduction of tumor vascular leakiness as reflected by the slope of the ΔR1 values in FaDu xenografts. This could be a result of tumor vascular maturation as determined by the double immunohistochemical staining for the pan endothelial cell adhesion molecule (PECAM; CD31) and α-SMA in control and MSC treated mice (Day 14 of MSC treatment).
This is in agreement with our estimates of MVD as MSC treatment does lead to a reduction in MVD. However, the decrease in permeability could be a result of the ‘maturation’ effect of MSC. To validate findings from the imaging studies, immunohistochemical staining for the pan endothelial cell adhesion molecule (PECAM; CD31) along with staining with alpha-smooth muscle actin was performed in control and MSC-treated mice (Day 14 after treatment).

[5] = test system: matrigel plug containing cultured FaDu tumor cells; test: Matrigel plug (s.c.) containing cultured FaDu tumor cells, microvessel count; type: in vivo; details: 0.2 mg/mouse/day, after 1 week, 10^6 cells s.c., p<0.05
From the text: (§2) Thus, selenium inhibits proliferation of endothelial cells.

tumor microvessels = test: Histopathological studies for direct antivascular effect; type: in vivo, mouse; details: histopathology
From the text: as §2

FaDu xenografts [6] = test: DCE-MRI (albumin-GdDTPA) of tumor vascular permeability and volume in FaDu xenografts; type: in vivo, mouse
Experimental: FaDu xenograft bearing mice were used. MSC was administered for 14 days. Mice were imaged using a 4.7-T/33-cm horizontal bore magnet (GE NMR Instruments, Fremont, Calif.) incorporating AVANCE digital electronics [Bruker Biospec, ParaVision 3.0.2 OS); Bruker Medical, Billerica, Mass.], a removable gradient coil insert (G060; Bruker Medical) generating a maximum field strength of 950 mT/m, and a custom-designed radiofrequency transreceiver coil. Animals were anesthetized before imaging with a ketamine/xylazine mixture (10:1) at a dose of […], secured in a mouse coil chamber, and positioned on a scanner. The animals were kept warm in the magnet using a circulating water bath maintained at 37 jC. […] T1 relaxation rates were determined using a saturation recovery, fast spin echo sequence with an effective echo time (TE) of 10 milliseconds, and a TR ranging from 360 to 6000 milliseconds [FOV=32×32 mm, slice thickness=1.0 mm, matrix size=128×96 pixels, number of excitations (NEX)=3]. […]
Image processing and analysis were carried out using commercially available software (ANALYZE PC, Version 5.0; Biomedical Imaging Resource, Mayo Foundation, Rochester, Minn.) (Matlab's curve-fitting toolbox, Matlab Version 7.0; Math Works, Inc., Natick, Mass.). […] Percent tumor enhancement (E) was then calculated from relative intensity (RI) […]

HNSCC xenograft FaDu = test: Dose and schedule dependence of therapeutic synergy with irinotecan in FaDu xenograft; type: in vivo
From the text: A minimum 7 days pretreatment with MSC is required to achieve optimal therapeutic synergy with a representative anticancer drug—irinotecan. […] Daily pretreatment for 7-14 days was critical to achieve the selective effects of selenium. This reflects the time required for priming of tumor vasculature by MSC in order to see the therapeutic end results.

Thrombospondin-1 (TSP-1) = test: Western blot of FaDu xenografts: TSP-1; type: in vivo; details: selenium for 14 days
From the text: as §1

VEGF = VEGF expression (WB) and secretion (ELISA) in FaDu tumor cells in vitro; type: cell-based
From the text: as §2

[7] = test system: endothelial cells in the angiogenic microvessels; test: CD31/Tunnel double staining of angiogenic microvessels; type: in vivo, mouse
From the text: as §2

FaDu xenografts [8] = test: Hoechst 33342 / DiOC7 fluorescent dye uptake, functional tumor vasculature; type: in vivo, mouse; details: post 14 days MSC treatment
Experimental: Initial studies on uptake of fluorescent dyes Hoechst 33342 (i.v at 15 mg/kg in sterile phosphate buffered saline) followed 20 minutes later with DiOC7 (i.v. at 1 mg/kg in dimethyl sulfoxide) in mice bearing A253 and FaDu xenografts are indicative of tumor vascular maturation by MSC. Uptake of both dyes is indicative of functional vasculature while uptake of only one dye is indicative of […] vasculature. […] Abnormal vasculature shut off when challenged with dyes similar to Hoechst 33342 while blood flow through ‘normalized’ vasculature is not affected.

[9] = 14 days MSC pre-treatment, 2 hours post i.v., vs monotherapy
[10] = combination treatment with SN-38

Question: For `C[Se]C[C@H](N)C(=O)O` [MSC, methylselenocysteine], which “intratumoral microvessel density (MVD)” value (FaDu xenografts [1]) is on record?
Answer: decreases

Question: What about the HIF-1α expression (HIF-1α) of the same molecule?
Answer: significant inhibition

Question: What about the CD36 expression (CD36) of the same molecule?
Answer: up regulated

Question: What about the “mean tumor vessel lumen area” value ([2]; p<0.0001) of the same molecule?
Answer: reduction

Question: What about the “tumor vascular maturation index (VMI)” value ([2]; p<0.05) of the same molecule?
Answer: significant increase

Question: What about the DLL4 expression [3] of the same molecule?
Answer: down-regulates

Question: What about the “intratumoral drug concentration, CPT-11 (SN-38 per FIG. 6A)” value [4, 9] of the same molecule?
Answer: more than doubling

Question: What about the “intratumoral drug concentration, doxorubicin” value [4, 9] of the same molecule?
Answer: more than doubling

Question: What about the “drug concentration in normal tissues” value ([4]; liver, plasma, kidney, combination with MSC vs monotherapy) of the same molecule?
Answer: did not show a significant increase

Question: What about the “pericyte recruitment / α-SMA staining of tumor vasculature” value (FaDu tumors) of the same molecule?
Answer: Increased pericyte recruitment; also recorded: increased staining of α-SMA

Question: What about the “microvessel density in matrigel plug containing FaDu tumor cells” value [5] of the same molecule?
Answer: decreases

Question: And the “direct antivascular effect (microvessel necrosis, endothelial cell death, microthrombus formation)” value (tumor microvessels)?
Answer: did not show any signs of other direct antivascular effect

Question: What about the tumor vascular volume (FaDu xenografts [6]; 14 days MSC treatment) of the same molecule?
Answer: statistically significant decrease

Question: What about the “tumor vascular permeability (leakiness; slope of ΔR1)” value (FaDu xenografts [6]; 14 days MSC vs volume matched control) of the same molecule?
Answer: reduction; also recorded: statistically significant decrease

Question: What about the “minimum pretreatment required for optimal therapeutic synergy with irinotecan” value (HNSCC xenograft FaDu; daily MSC) of the same molecule?
Answer: ≥ 7 days

Question: What about the therapeutic effect (HNSCC xenograft FaDu; with irinotecan) of the same molecule?
Answer: dose and schedule dependent

Question: And the TSP-1 expression (Thrombospondin-1 (TSP-1))?
Answer: up regulates

Question: And the “VEGF expression (WB)” value (VEGF; [10])?
Answer: down regulates

Question: And the “VEGF secretion (ELISA)” value (VEGF; [10])?
Answer: down regulates

Question: And the VEGF secretion (VEGF; selenium alone)?
Answer: decreased

Question: And the “apoptotic endothelial cell nuclei in angiogenic microvessels” value [7]?
Answer: did not show apoptotic endothelial cell nuclei

Question: What about the “vasculature with uptake of both dyes ('normalized' functional vasculature)” value (FaDu xenografts [8]) of the same molecule?
Answer: approximately 80%
